Assay results: patent publication US12077503B2, “Substituted cyclic amides and their use as herbicides” (FMC CORPORATION, priority 2015, dated 2024)

Assays:
Format in all cases: in vivo
[1] = tested on: ryegrass, Italian (Italian ryegrass, Lolium multiflorum); assay: Test A postemergence
Method in brief: (§1)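 Visual injury scores from 0, no effect, to 100, complete control, were assigned versus untreated controls roughly 10 d after treatment in the greenhouse. Test chemicals, formulated with surfactant in a non-phytotoxic solvent, were applied to planted seeds as a preemergence soil spray or postemergence to one- to two-leaf plants 2 to 10 cm tall, in loam–sand soil.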

[2] = tested on: ragweed (common ragweed, Ambrosia elatior); assay: Test A postemergence
Method in brief: as §1

[3] = tested on: Galium (catchweed bedstraw, Galium aparine); assay: Test A postemergence
Method in brief: as §1

corn (Zea mays) = assay: Test A postemergence
Method in brief: as §1

Kochia (Kochia scoparia) [4] = assay: Test A postemergence
Method in brief: as §1

[5] = tested on: wheat (Triticum aestivum); assay: Test A postemergence
Method in brief: as §1

[6] = tested on: giant foxtail (Setaria faberii); assay: Test A postemergence
Method in brief: as §1

[7] = tested on: barnyardgrass (Echinochloa crus-galli); assay: Test A postemergence
Method in brief: as §1

[8] = tested on: pigweed (Amaranthus retroflexus); assay: Test A postemergence
Method in brief: as §1

[9] = tested on: blackgrass (Alopecurus myosuroides); assay: Test A postemergence
Method in brief: as §1

[10] = tested on: sedge, umbrella (small-flower umbrella sedge, Cyperus difformis); assay: Test B flooded paddy test; conditions: Flood, 250 g ai/ha; 0 to 100 scale where 0 is no effect and 100 is complete control; 13 to 15 d
Method in brief: (§2)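 Response scored visually against untreated controls, 0 = no effect and 100 = complete control, 13–15 d after treatment in the greenhouse. Compounds added to paddy water held 3 cm above soil surface. Treatment given at 2-leaf stage.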

[11] = tested on: ducksalad (Heteranthera limosa); assay: Test B flooded paddy test; conditions: Flood, 250 g ai/ha; 0 to 100 scale where 0 is no effect and 100 is complete control; 13 to 15 d
Method in brief: as §2

rice (Oryra sativa) = assay: Test B flooded paddy test; conditions: Flood, 250 g ai/ha; 0 to 100 scale where 0 is no effect and 100 is complete control; 13 to 15 d
Method in brief: as §2

[12] = tested on: barnyardgrass (Echinochloa crus-galli); assay: Test B flooded paddy test; conditions: Flood, 250 g ai/ha; 0 to 100 scale where 0 is no effect and 100 is complete control; 13 to 15 d
Method in brief: as §2

[13] = tested on: ryegrass, Italian (Italian ryegrass, Lolium multiflorum); assay: Test A preemergence
Method in brief: as §1

[14] = tested on: ragweed (common ragweed, Ambrosia elatior); assay: Test A preemergence
Method in brief: as §1

Kochia (Kochia scoparia) [15] = assay: Test A preemergence
Method in brief: as §1

[16] = tested on: giant foxtail (Setaria faberii); assay: Test A preemergence
Method in brief: as §1

[17] = tested on: barnyardgrass (Echinochloa crus-galli); assay: Test A preemergence
Method in brief: as §1

[18] = tested on: pigweed (Amaranthus retroflexus); assay: Test A preemergence
[19] = 125 g ai/ha, postemergence, visual rating after approx. 10 d, 0 to 100 scale (0 no effect, 100 complete control)
[20] = Postemergence, 500 g ai/ha, 0 to 100 scale where 0 is no effect and 100 is complete control
[21] = 125 g ai/ha, Preemergence, visual injury after approximately 10 d, 0 to 100 scale where 0 is no effect and 100 is complete control
[22] = 500 g ai/ha, preemergence, 0 to 100 scale, 0 = no effect, 100 = complete control
[23] = 500 g ai/ha, postemergence, visual injury, 0 to 100 scale (0 no effect, 100 complete control), approx. 10 d

Structure (SMILES) | Plant response rating, Ryegrass, Italian [1, 19] | Plant response rating, Ragweed [2, 19] | Plant response rating, Galium [3, 19] | Plant response rating, Corn (corn (Zea mays); [19]) | Plant response rating, Kochia (Kochia (Kochia scoparia) [4]; [19]) | Plant response rating, Wheat [5, 19] | Plant response rating, Foxtail, Giant [6, 19] | Plant response rating, Barnyardgrass [7, 19] | Plant response rating, Pigweed [8, 19] | Plant response rating, Blackgrass [9, 19] | Plant response rating, Sedge, Umbrella [10] | Plant response rating, Ducksalad [11] | Plant response rating, Rice (rice (Oryra sativa)) | Plant response rating, Barnyardgrass [12] | Plant response rating, Ryegrass, Italian [13, 21] | Plant response rating, Ryegrass, Italian [13, 22] | Plant response rating, Ragweed [14, 21] | Plant response rating, Ragweed [14, 22] | Plant response rating, Kochia (Kochia (Kochia scoparia) [15]; [21]) | Plant response rating, Kochia (Kochia (Kochia scoparia) [15]; [22]) | also measured
O=C1NCC(c2ccc(F)cc2F)C1C(=O)Nc1ccccc1F (stereo not drawn) [Compound 620] | 0 | 0 | 0 | 0 | 0 | 0 | 30 | 20 | 0 | 0 | 0 | 65 | 0 | 10 | 0 | 0 | 0 | 0 | 0 | 20 | Plant response rating, Ryegrass, Italian [1, 20]: 0; Plant response rating, Ragweed [2, 20]: 0; Plant response rating, Galium [3, 20]: 20; Plant response rating, Corn (corn (Zea mays); [20]): 0; Plant response rating, Kochia (Kochia (Kochia scoparia) [4]; [20]): 0; Plant response rating, Wheat [5, 20]: 0; Plant response rating, Foxtail, Giant [6, 20]: 50; Plant response rating, Barnyardgrass [7, 20]: 60; Plant response rating, Pigweed [8, 20]: 0; Plant response rating, Blackgrass [9, 20]: 0; Plant response rating, Foxtail, Giant [16, 21]: 80; Plant response rating, Foxtail, Giant [16, 22]: 90; Plant response rating, Barnyardgrass [17, 21]: 70; Plant response rating, Barnyardgrass [17, 22]: 80; Plant response rating, Pigweed [18, 21]: 0; Plant response rating, Pigweed [18, 22]: 0
C=CCOc1cccc(C2CNC(=O)C2(CC=C)C(=O)Nc2cccc(F)c2F)c1 (stereo not drawn) [Compound 631] | 0 | 0 | 0 | 0 | 0 | 0 | 0 | 0 | 0 | 0 | 0 | 0 | 0 | 0 | 0 | 0 | 0 | 0 | 0 | 0 | Plant response rating, Ryegrass, Italian [1, 23]: 0; Plant response rating, Ragweed [2, 23]: 0; Plant response rating, Galium [3, 23]: 0; Plant response rating, Corn (corn (Zea mays); [20]): 0; Plant response rating, Kochia (Kochia (Kochia scoparia) [4]; [23]): 0; Plant response rating, Wheat [5, 23]: 0; Plant response rating, Foxtail, Giant [6, 23]: 0; Plant response rating, Barnyardgrass [7, 20]: 0; Plant response rating, Pigweed [8, 23]: 0; Plant response rating, Blackgrass [9, 20]: 0; Plant response rating, Foxtail, Giant [16, 21]: 0; Plant response rating, Foxtail, Giant [16, 22]: 0; Plant response rating, Barnyardgrass [17, 21]: 0; Plant response rating, Barnyardgrass [17, 22]: 0; Plant response rating, Pigweed [18, 21]: 0; Plant response rating, Pigweed [18, 22]: 0
CN1CC(c2cccc(F)c2)C(C(=O)Nc2cccc(F)c2F)C1=O (stereo not drawn) [Compound 632] | 30 | 20 | 50 | 20 | 60 | 30 | 90 | 90 | 0 | 50 | 50 | 100 | 30 | 80 | 60 | 70 | 60 | 70 | 50 | 70 | Plant response rating, Ryegrass, Italian [1, 23]: 50; Plant response rating, Ragweed [2, 23]: 30; Plant response rating, Galium [3, 23]: 50; Plant response rating, Corn (corn (Zea mays); [20]): 80; Plant response rating, Kochia (Kochia (Kochia scoparia) [4]; [23]): 60; Plant response rating, Wheat [5, 23]: 60; Plant response rating, Foxtail, Giant [6, 23]: 90; Plant response rating, Barnyardgrass [7, 20]: 90; Plant response rating, Pigweed [8, 23]: 40; Plant response rating, Blackgrass [9, 20]: 60; Plant response rating, Foxtail, Giant [16, 21]: 90; Plant response rating, Foxtail, Giant [16, 22]: 90; Plant response rating, Barnyardgrass [17, 21]: 90; Plant response rating, Barnyardgrass [17, 22]: 90; Plant response rating, Pigweed [18, 21]: 0; Plant response rating, Pigweed [18, 22]: 70
CN1CC(c2cc(F)cc(F)c2)C(C(=O)Nc2cccc3c2CCCC3)C1=O (stereo not drawn) [Compound 660] | 0 | 0 | 0 | 0 | 0 | 0 | 80 | 50 | 0 | 0 | 0 | 60 | 15 | 45 | 0 | 20 | 0 | 0 | 0 | 0 | Plant response rating, Ryegrass, Italian [1, 23]: 0; Plant response rating, Ragweed [2, 23]: 0; Plant response rating, Galium [3, 23]: 0; Plant response rating, Corn (corn (Zea mays); [23]): 0; Plant response rating, Kochia (Kochia (Kochia scoparia) [4]; [23]): 0; Plant response rating, Wheat [5, 23]: 0; Plant response rating, Foxtail, Giant [6, 23]: 90; Plant response rating, Barnyardgrass [7, 23]: 80; Plant response rating, Pigweed [8, 23]: 0; Plant response rating, Blackgrass [9, 23]: 40; Plant response rating, Foxtail, Giant [16, 21]: 80; Plant response rating, Foxtail, Giant [16, 22]: 90; Plant response rating, Barnyardgrass [17, 21]: 60; Plant response rating, Barnyardgrass [17, 22]: 90; Plant response rating, Pigweed [18, 21]: 0; Plant response rating, Pigweed [18, 22]: 0
Cc1cccc(C2CN(C)C(=O)C2C(=O)Nc2ccccc2S(C)(=O)=O)c1 (stereo not drawn) [Compound 668] | 0 | 0 | 20 | 20 | 20 | 20 | 90 | 90 | 0 | 60 | 0 | 98 | 0 | 70 | 0 | 0 | 0 | 40 | 20 | 70 | Plant response rating, Ryegrass, Italian [1, 23]: 70; Plant response rating, Ragweed [2, 23]: 0; Plant response rating, Galium [3, 23]: 70; Plant response rating, Corn (corn (Zea mays); [23]): 80; Plant response rating, Kochia (Kochia (Kochia scoparia) [4]; [23]): 20; Plant response rating, Wheat [5, 23]: 60; Plant response rating, Foxtail, Giant [6, 23]: 90; Plant response rating, Barnyardgrass [7, 23]: 90; Plant response rating, Pigweed [8, 23]: 0; Plant response rating, Blackgrass [9, 23]: 70; Plant response rating, Foxtail, Giant [16, 21]: 90; Plant response rating, Foxtail, Giant [16, 22]: 100; Plant response rating, Barnyardgrass [17, 21]: 90; Plant response rating, Barnyardgrass [17, 22]: 90; Plant response rating, Pigweed [18, 21]: 20; Plant response rating, Pigweed [18, 22]: 50
